Each structure is given as a SMILES string.

The nature of this assay: Inhibition of Escherichia coli heptosyltransferase Waac.
In the case of `CC1=NN(c2cccc(C(=O)O)c2)C(=O)/C1=C\c1ccc(-c2ccc(C(=O)O)cc2)o1`, half-maximal inhibition (IC50) was put at 3 µM.
As for `CC1=NN(c2ccc(C(=O)O)cc2)C(=O)/C1=C\c1ccc(-c2ccccc2)o1`, 55 µM corresponded to half-maximal inhibition (IC50).
Consider `CC1=NN(c2ccc(C(=O)O)cc2)C(=O)/C1=C\c1ccc(-c2ccc(Cl)c(C(=O)O)c2)o1`, for which 3.1 µM corresponded to half-maximal inhibition (IC50).
For `CC1=NN(c2cccc(C(=O)O)c2)C(=O)/C1=C\c1ccc(-c2ccc(C(=O)O)c(C)c2)o1`, it took 31 µM to reach half-maximal inhibition (IC50).
Take `CC1=NN(c2cccc(C)c2)C(=O)/C1=C\c1ccc(-c2cccc(C(=O)O)c2)o1` (mixture of isomers): the IC50 (in general, the concentration that gives 50% inhibition) was over 100 µM.
With `CC1=NN(c2ccc(C(=O)O)cc2)C(=O)/C1=C\c1ccc(-c2ccc(C(=O)O)cc2)o1` (mixture of isomers) the figure was 51 µM; with `CC1=NN(c2ccc(C(=O)O)cc2)C(=O)/C1=C\c1ccc(-c2cccc(C(N)=O)c2)o1` (mixture of isomers), 18 µM.
Regarding `CC1=NN(c2cccc(C(=O)O)c2)C(=O)/C1=C\c1ccc(-c2ccc(S(N)(=O)=O)cc2)o1` (mixture of isomers), the IC50 is over 100 µM.
As to `COC(=O)c1cccc(-c2ccc(/C=C3\C(=O)N(c4cccc(C(=O)O)c4)N=C3C)o2)c1` (mixture of isomers), the IC50 came to 49 µM.
With `CC1=NN(c2cccc(C(=O)O)c2)C(=O)/C1=C\c1ccc(-c2cccc(C(=O)O)c2)o1` (mixture of isomers) the figure was 2 µM; with `CC(=O)c1cccc(-c2ccc(/C=C3\C(=O)N(c4cccc(C(=O)O)c4)N=C3C)o2)c1` (mixture of isomers), 15 µM.
With `CC1=NN(c2ccccc2)C(=O)/C1=C\c1ccc(-c2ccc(Cl)c(C(=O)O)c2)o1` (mixture of isomers) the figure was over 100 µM.
With `COC(=O)c1cccc(N2N=C(C)/C(=C/c3ccc(-c4cccc(C(=O)O)c4)o3)C2=O)c1` (mixture of isomers) the figure was over 100 µM.
As for `CC1=NN(c2cccc(C(=O)O)c2)C(=O)/C1=C\c1ccc(-c2ccc(Cl)c(C(=O)O)c2)o1` (mixture of isomers), half-maximal inhibition (IC50) required 1 µM.

For the origin of these results see ChEMBL document CHEMBL1155053, “Discovery of new Gram-negative antivirulence drugs: structure and properties of novel E. coli WaaC inhibitors” (Bioorg Med Chem Lett, 2008).
